By EC50 is commonly meant the concentration giving half of the maximal effect. The CC50 is the concentration that lowers cell viability or growth by half. In general, IC50 refers to the concentration at which inhibition is half-maximal. By AC50 is commonly meant the concentration giving half of the maximal activity seen.

This is an account of results in ChEMBL document CHEMBL1201862, “PubChem BioAssay data set” (2004).

Each structure is given as a SMILES string. Active and inactive are the calls of the source. Bounds are passed on as bounds.

The target in experiment [1] is Neurotensin receptor type 1 (Homo sapiens, UniProt P30989). It counts as functional.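 Note: Image-based confirmatory dose-response assay measuring agonist activity at NTR1; NTR1-expressing U2OS osteosarcoma cells imaged for beta-arrestin GFP spot formation; agonist potency where compounds increase beta-arrestin recruitment.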
Experiment [2] can be described thus: HEp-2 cell cytotoxicity, dose response, cytotoxicity control for RSV inhibitor project, HTS (AID 2410). Particulars: human respiratory syncytial virus. It counts as functional.
Experiment [3] is described as follows: cytotoxicity in HEK-293T cells, dose response, cytotoxicity control for BCR NF-kB inhibitor project, luminescence, B-cell screen hits (AID 489021).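 Note: HEK-293T cells carrying an NF-kB luciferase reporter; cells exposed to compound for about 14 hours before viability readout.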 The format is functional, cell-based.
Experiment [4] deals with T1, Microphthalmia-associated transcription factor (Homo sapiens, UniProt O75030).
T1 sequence (O75030 whole entry): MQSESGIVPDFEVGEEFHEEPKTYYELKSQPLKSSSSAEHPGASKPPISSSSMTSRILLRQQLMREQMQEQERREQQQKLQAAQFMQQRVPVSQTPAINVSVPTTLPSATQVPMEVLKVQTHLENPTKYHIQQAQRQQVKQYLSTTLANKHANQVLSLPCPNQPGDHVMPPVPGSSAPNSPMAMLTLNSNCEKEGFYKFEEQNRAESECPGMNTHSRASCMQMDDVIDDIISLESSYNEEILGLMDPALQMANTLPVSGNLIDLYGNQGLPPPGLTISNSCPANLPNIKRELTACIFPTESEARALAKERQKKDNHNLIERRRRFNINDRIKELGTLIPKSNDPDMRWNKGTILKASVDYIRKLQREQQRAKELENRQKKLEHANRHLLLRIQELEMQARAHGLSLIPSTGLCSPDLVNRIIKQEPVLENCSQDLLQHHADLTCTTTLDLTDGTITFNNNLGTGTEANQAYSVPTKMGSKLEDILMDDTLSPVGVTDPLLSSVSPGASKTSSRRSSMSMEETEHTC
Briefly: TRPM1 promoter luciferase signal decrease, dose response, MITF inhibitor project, cell-based, SK-MEL-5, cherry-picked, set 3 (AID 493073).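 Note: SK-MEL-5 melanoma cells with luciferase driven by the MITF target TRPM1 promoter.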 It counts as functional.

In experiment [5] the target is T2, Replicative DNA helicase DnaB (Mycobacterium tuberculosis, UniProt P9WMR3).
T2 sequence (P9WMR3 whole entry): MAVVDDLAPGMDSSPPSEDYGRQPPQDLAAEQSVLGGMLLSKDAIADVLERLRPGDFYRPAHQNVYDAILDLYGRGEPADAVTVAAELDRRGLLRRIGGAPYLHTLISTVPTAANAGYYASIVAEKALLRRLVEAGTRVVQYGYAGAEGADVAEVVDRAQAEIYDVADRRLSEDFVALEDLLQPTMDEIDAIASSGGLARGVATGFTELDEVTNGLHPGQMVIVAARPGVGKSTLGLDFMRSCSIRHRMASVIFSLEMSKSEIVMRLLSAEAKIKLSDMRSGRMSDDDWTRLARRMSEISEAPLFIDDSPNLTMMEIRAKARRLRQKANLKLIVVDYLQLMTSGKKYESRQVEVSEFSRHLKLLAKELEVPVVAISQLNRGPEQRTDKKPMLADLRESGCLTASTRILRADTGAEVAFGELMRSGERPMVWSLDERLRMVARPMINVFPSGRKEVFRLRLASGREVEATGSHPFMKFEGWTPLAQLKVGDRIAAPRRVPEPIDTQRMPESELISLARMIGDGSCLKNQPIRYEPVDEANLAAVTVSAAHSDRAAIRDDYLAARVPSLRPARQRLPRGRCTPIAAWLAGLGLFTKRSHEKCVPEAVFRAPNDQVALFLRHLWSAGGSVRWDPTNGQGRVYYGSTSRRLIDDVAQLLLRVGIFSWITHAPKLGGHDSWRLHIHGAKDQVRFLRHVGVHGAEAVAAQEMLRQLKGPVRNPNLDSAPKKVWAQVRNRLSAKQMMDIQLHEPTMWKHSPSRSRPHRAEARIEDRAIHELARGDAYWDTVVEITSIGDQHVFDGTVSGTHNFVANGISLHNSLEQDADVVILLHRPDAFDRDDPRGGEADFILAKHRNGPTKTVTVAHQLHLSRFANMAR
Briefly: DnaB intein splicing inhibitors, dose response, biochemical, cell-free fluorescence (AID 449749). It counts as functional.

Experiment [6] has as its target T3, Histone-lysine N-methyltransferase NSD2 (Homo sapiens, UniProt O96028).
T3 sequence (O96028 whole entry): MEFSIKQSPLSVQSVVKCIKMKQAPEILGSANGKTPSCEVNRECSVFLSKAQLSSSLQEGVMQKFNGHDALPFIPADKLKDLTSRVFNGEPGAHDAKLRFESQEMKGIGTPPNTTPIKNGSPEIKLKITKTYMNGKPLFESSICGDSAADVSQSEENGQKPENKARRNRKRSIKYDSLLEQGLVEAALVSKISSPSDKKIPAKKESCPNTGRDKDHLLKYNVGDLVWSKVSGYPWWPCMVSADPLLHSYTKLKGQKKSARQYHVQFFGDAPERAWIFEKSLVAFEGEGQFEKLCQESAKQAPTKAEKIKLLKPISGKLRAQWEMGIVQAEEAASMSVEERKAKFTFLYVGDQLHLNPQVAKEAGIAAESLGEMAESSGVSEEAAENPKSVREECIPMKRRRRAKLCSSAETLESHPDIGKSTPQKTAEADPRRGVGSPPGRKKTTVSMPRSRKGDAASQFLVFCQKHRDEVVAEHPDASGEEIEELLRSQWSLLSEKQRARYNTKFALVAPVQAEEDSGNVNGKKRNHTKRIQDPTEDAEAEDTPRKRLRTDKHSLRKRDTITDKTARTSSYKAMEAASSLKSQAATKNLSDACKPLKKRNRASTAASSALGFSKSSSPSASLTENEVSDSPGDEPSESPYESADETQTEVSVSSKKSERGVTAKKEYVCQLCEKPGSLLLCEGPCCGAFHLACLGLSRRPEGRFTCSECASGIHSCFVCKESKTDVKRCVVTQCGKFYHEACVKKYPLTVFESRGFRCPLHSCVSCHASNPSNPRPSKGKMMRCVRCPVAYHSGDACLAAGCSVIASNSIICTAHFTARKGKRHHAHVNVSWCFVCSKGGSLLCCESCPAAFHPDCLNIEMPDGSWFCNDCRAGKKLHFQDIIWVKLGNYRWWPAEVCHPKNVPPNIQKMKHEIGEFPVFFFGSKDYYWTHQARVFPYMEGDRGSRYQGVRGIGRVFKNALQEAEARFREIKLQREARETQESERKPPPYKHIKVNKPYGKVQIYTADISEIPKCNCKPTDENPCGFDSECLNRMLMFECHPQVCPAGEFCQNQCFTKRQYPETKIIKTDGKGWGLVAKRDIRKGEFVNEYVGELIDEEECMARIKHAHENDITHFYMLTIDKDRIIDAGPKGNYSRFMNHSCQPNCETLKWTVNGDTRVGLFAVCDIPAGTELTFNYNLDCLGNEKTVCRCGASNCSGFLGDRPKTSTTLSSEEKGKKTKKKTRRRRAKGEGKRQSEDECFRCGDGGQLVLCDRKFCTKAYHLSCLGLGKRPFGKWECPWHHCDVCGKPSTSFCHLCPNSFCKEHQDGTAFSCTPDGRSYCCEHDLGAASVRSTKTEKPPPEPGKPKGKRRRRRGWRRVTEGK
It counts as biochemical.

Experiment [7] concerns the target Eukaryotic translation initiation factor 4E (Mus musculus, UniProt P63073). Kind of experiment: eIF4E–eIF4G protein interaction inhibitors, dose response, biochemical, TR-FRET (AID 855).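 Note: potency for disrupting eIF4E binding to eIF4GI seen as loss of FRET.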 The format is functional. In general terms: In TR-FRET formats the signal depends on donor and acceptor labels being close together.
In experiment [8] the target is T4, Protein RecA (Mycobacterium tuberculosis, UniProt P9WHJ3).
T4 sequence (P9WHJ3 whole entry): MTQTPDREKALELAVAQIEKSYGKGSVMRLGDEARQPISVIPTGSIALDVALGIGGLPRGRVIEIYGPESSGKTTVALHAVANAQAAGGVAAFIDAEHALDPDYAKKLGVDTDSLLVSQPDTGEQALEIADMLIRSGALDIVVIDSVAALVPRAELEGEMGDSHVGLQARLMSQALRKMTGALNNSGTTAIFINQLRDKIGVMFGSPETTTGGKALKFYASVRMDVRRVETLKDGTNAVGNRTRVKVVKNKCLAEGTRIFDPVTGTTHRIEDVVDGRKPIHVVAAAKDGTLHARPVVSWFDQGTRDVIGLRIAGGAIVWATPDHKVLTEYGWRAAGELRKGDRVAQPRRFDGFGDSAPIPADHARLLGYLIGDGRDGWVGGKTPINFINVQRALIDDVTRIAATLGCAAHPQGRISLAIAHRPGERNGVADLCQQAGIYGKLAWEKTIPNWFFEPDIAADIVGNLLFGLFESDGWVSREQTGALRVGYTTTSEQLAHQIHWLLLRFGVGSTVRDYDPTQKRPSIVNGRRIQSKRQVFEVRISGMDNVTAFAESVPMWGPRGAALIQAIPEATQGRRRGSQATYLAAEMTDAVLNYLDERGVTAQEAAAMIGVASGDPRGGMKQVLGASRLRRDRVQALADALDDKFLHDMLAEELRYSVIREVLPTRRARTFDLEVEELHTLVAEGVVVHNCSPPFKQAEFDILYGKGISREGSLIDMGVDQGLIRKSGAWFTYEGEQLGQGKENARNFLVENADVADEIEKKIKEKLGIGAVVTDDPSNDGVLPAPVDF
Briefly: Fluorescence Cell-Free Homogeneous Dose Retest to Identify Inhibitors of RecA-Intein Splicing Activity. [Related pubchem assays (depositor defined):AID2097, AID2223, AID489010, AID492950]. It counts as functional.

The target of experiment [9] is T5, CAAX prenyl protease 2 (Homo sapiens, UniProt Q9Y256).
T5 sequence (Q9Y256 whole entry): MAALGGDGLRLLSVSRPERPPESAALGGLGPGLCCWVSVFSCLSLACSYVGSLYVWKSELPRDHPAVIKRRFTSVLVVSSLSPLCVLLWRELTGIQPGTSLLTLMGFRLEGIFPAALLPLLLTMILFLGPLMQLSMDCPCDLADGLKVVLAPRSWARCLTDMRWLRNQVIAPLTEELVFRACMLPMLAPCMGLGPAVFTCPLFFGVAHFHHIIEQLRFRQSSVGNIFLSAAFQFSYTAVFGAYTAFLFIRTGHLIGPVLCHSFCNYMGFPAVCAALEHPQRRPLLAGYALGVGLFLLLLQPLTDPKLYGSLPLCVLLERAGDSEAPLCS
Briefly: human Rce1 protease inhibitors, dose response, biochemical, yeast membranes, quenched-peptide fluorescence, cherry-pick (AID 588849).

Experiment [10] deals with Trypsin (Sus scrofa, UniProt P00761). Kind of experiment: porcine trypsin inhibitors, dose response, selectivity assay for Rce1 protease inhibitor project, biochemical, quenched peptide fluorescence, cherry-pick (AID 488789).
In experiment [11] the target is Cytochrome P450 3A4 (Homo sapiens, UniProt P08684).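 Note: CYP3A4 tested as one member of a cytochrome P450 panel screen.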
The target of experiment [12] is T6, Cytochrome P450 1A2 (Homo sapiens, UniProt P05177).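 Note: PubChem cytochrome P450 panel assay, CYP1A2 panel member.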
T6 sequence (P05177 whole entry): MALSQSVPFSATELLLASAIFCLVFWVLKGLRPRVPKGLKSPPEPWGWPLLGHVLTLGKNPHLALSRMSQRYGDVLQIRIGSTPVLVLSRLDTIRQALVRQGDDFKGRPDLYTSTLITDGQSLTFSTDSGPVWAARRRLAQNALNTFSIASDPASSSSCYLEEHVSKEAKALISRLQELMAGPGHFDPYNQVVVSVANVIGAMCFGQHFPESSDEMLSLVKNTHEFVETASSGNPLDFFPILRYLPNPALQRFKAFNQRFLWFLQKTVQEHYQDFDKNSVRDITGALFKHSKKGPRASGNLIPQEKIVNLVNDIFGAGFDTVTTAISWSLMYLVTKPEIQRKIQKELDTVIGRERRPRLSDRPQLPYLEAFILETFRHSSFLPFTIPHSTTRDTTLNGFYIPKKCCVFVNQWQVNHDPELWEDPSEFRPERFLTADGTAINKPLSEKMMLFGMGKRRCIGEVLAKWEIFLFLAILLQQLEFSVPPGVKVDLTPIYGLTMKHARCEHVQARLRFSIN

Experiment [13] concerns the target T7, CAAX prenyl protease 1 (Saccharomyces cerevisiae S288c, UniProt P47154).
T7 sequence (P47154 whole entry): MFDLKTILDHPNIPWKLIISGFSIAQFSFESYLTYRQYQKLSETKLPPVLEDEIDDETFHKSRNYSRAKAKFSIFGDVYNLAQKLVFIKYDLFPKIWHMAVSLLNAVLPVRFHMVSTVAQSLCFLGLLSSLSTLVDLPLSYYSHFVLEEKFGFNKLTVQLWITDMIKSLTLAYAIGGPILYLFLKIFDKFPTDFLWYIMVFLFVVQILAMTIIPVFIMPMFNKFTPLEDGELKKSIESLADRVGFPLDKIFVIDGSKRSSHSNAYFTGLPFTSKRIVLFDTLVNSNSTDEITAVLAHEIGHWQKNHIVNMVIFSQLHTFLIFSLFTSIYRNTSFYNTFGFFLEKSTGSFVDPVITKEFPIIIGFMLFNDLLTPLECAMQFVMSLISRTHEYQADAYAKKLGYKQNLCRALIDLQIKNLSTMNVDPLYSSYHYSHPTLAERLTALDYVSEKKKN
Kind of experiment: Ste24 protease inhibitors, dose response, biochemical, S. cerevisiae, plate reader, cherry-pick (AID 488815).

Trypsin, sequence (P00761 whole entry): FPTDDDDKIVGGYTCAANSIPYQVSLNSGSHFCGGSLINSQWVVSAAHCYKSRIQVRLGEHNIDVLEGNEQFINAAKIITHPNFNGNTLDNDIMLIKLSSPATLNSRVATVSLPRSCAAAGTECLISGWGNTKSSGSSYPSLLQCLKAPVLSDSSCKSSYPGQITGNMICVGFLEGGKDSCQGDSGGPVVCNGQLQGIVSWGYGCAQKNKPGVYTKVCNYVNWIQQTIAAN
Eukaryotic translation initiation factor 4E, sequence (P63073 whole entry): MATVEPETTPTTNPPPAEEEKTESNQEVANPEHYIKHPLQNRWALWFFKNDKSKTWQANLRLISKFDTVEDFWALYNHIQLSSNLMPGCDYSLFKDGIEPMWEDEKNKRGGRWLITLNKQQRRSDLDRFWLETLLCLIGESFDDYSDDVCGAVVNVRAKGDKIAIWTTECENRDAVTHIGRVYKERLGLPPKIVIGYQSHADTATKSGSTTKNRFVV
Neurotensin receptor type 1, sequence (P30989 whole entry): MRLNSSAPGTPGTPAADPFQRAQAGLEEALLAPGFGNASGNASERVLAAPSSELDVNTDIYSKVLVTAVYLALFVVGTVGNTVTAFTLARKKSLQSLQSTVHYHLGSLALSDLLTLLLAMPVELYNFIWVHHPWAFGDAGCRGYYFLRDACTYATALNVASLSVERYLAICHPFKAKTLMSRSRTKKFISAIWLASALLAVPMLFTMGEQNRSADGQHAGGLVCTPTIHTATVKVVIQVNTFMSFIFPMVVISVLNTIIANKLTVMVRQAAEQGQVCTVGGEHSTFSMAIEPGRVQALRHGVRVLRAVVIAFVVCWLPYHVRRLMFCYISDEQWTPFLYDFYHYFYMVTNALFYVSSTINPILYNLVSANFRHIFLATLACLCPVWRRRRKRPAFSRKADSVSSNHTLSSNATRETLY
Cytochrome P450 3A4, sequence (P08684 whole entry): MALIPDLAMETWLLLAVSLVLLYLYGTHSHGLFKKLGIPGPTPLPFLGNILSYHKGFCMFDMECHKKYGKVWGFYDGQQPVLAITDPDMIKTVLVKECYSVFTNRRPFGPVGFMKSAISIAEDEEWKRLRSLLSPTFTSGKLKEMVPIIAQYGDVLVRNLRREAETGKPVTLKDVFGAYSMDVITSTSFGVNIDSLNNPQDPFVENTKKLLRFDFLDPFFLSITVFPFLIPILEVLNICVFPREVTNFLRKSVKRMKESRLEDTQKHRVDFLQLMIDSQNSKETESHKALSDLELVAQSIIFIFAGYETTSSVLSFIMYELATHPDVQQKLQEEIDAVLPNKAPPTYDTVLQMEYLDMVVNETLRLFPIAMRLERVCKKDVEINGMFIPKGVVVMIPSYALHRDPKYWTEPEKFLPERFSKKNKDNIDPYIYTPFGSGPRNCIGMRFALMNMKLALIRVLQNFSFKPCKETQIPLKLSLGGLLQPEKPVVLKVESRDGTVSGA

Consider `Cc1cc(C)cc(N2C(=O)NC(=O)/C(=C\c3cccn3-c3ccccc3)C2=O)c1`, for which the EC50 in experiment [1] was 10.3 µM (active). Moreover, in [2], the CC50 was 19.9 µM (active). Besides, the IC50 in experiment [3] is > 80 µM (inactive). Besides, the AC50 in experiment [4] is 13.8 µM (active).
`CC(C)(O)/C=C/C(=O)[C@](C)(O)C1[C@H](O)C[C@@]2(C)C3CC=C4C(C[C@H](O)[C@@H](O)C4(C)C)[C@]3(C)C(=O)C[C@]12C` (stereo not given in full): the IC50 in experiment [3] was > 80 µM (inactive).
Regarding `CC(=O)c1c(C)nc(-c2ccc(Cl)cc2)nc1/N=C/N(C)C`, the AC50 in [5] is > 380 µM (inactive); in experiment [6] it was > 20 µM (inactive). For the same molecule, the IC50 in experiment [7] is 40 µM (inactive). The EC50 in [8] is > 380 µM (inactive).
As for `CN(C)/C=N/c1c(C#N)cnn1-c1ncnc2sc(-c3ccccc3)cc12`, the AC50 in experiment [9] is 19.1 µM (active); in [10], 8.06 µM (active).
With `CCN(CC)c1ccc(NC(=O)CCCOc2cccc(C)c2)cc1`, the IC50 in experiment [7] is 50 µM (inactive).
Consider `CCOc1c2ccc(C(=O)NCc3ccco3)cc2nn1CCOC`, for which the AC50 in experiment [9] was 12.3 µM (active); in experiment [11], 22.4 µM (inconclusive); in [12] it was 15.8 µM (inconclusive); in experiment [13], 11.5 µM (active); in [10], 16.5 µM (active).
`COc1ccc(CNC(=O)c2ccccc2NS(C)(=O)=O)cc1`: the AC50 is 11.7 µM (active) in experiment [9], 5.47 µM (active) in experiment [13] and 12.4 µM (active) in experiment [10].
